Data on 2 molecules can be found in patent publication US9012166B2, “Method for assaying histone methylation enzyme activity” (Kyushu Institute of Technology, priority 2010, dated 2015).

What all share (assay type): biochemical
Assay [1] concerns the target T1, G9a (Mus musculus, UniProt Q9Z148).
T1 sequence (Q9Z148 1-1263): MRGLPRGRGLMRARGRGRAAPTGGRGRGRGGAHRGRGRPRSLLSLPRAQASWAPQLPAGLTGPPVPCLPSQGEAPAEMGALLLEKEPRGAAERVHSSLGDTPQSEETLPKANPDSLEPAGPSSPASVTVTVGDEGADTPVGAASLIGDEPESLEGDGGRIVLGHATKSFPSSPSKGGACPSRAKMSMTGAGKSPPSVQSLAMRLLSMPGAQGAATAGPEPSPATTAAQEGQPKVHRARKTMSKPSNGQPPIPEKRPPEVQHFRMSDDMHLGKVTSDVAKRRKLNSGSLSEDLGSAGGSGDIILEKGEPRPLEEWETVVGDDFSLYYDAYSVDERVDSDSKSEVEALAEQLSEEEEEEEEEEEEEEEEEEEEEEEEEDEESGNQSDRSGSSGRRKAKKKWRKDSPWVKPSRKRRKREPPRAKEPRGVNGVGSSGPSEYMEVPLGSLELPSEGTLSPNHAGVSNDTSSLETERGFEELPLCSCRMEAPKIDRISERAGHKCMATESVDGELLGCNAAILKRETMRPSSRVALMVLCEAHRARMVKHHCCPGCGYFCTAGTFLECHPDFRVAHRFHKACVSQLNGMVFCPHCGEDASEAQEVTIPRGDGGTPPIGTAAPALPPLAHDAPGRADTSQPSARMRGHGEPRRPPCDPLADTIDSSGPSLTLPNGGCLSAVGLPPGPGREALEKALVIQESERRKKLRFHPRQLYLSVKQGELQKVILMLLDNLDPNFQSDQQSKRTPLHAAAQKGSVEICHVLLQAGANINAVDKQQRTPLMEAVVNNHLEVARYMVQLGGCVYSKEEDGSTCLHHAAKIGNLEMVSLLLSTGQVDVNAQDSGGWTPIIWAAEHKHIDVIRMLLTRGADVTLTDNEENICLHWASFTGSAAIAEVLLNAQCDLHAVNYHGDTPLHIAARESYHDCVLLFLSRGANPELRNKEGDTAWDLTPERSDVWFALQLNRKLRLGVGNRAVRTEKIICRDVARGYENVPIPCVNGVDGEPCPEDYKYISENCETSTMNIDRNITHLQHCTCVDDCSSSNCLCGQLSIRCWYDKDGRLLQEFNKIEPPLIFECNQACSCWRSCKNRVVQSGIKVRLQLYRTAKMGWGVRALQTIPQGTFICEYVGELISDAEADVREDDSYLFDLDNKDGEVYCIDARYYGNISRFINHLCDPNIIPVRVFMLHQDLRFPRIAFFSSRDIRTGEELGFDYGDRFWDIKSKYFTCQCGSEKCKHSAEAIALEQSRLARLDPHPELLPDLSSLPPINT
Kind of assay: Western blot evaluation of histone methyltransferase inhibitor, G9a. The following applies: FIG. 17. As for the experimental part: To examine whether the activity of a histone methyltransferase inhibitor could be evaluated by an assay for measuring histone methyltransferase activity using a peptidyl MCA, the assay for measuring histone methyltransferase activity was attempted. However, the activity of gliotoxin as a histone methyltransferase inhibitor was evaluated by Western blot, prior to the assay for measuring histone methyltransferase activity. Gliotoxin is known not to inhibit the methylation activity of Set9 but to inhibit the methylation activity of G9a. […] The following assay for measuring histone methyltransferase activity was carried out in order to examine whether the same results as those from the Western blot could also be obtained from the assay for measuring histone methyltransferase activity.
On the technique in general: A western blot detects proteins with antibodies after separation by electrophoresis.

Assay [2] concerns trypsin. Kind of assay: LC/MS analysis of reaction between substrate compound and trypsin. Conditions: Example 3; 37° C., 15 minutes. As for the experimental part: (§1) Distilled water was added to 10 μL of 2×HMT buffer (100 mM Tris-HCl (pH 8.5), 20 mM MgCl2, 40 mM KCl, 20 mM 2-mercaptoethanol, 500 mM sucrose) and 1 μL of a BocLysMCA solution to adjust the total volume to 20 μL. To the resultant solution was added 30 μL of a peptidase solution (20 mg/mL trypsin or 20 mAU/mL lysyl endopeptidase), which was then mixed and incubated at 37° C. for 15 minutes. Then, the solution was applied to a liquid chromatograph mass spectrometer (LC/MS) for analysis. Analysis was performed by the same method as that for the above analysis except for using monomethylated BocLysMCA (i.e., “BocLys(Me)MCA”), dimethylated BocLysMCA (i.e., “BocLys(Me)2MCA”), or trimethylated BocLysMCA (i.e., “BocLys(Me)3MCA”) in place of BocLysMCA. Analysis was also carried out by the same method except for using, in place of the above-described peptidase solution, an equal volume of distilled water.

For assay [3], the target named is lysyl endopeptidase (Achromobacter lyticus, UniProt P15636). The assay can be described thus: LC/MS analysis of reaction between substrate compound and lysyl endopeptidase. The following applies: Example 3; 37° C., 15 minutes. How it is done:
as §1

lysyl endopeptidase, sequence (P15636 206-473 limits assumed, species assumed): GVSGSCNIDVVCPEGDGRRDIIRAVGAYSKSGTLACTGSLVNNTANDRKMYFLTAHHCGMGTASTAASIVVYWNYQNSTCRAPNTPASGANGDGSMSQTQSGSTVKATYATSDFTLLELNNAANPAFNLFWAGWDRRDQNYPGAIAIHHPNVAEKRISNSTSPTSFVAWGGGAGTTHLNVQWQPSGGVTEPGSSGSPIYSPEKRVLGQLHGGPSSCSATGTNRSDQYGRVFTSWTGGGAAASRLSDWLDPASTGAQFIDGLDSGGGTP

`CN1C(=O)[C@]23CC4=CC=C[C@H](O)[C@H]4N2C(=O)[C@@]1(CO)SS3` [gliotoxin]: the “inhibition of the methylation of G9a (Western blot)” value in assay [1] is reported as “inhibited”.
As to `Cc1cc(=O)oc2cc(NC(=O)C(CCCCN)NC(=O)OC(C)(C)C)ccc12` (stereo not drawn) [BocLysMCA, Boc-K-MCA], the “hydrolysis by trypsin (LC/MS peaks)” value in assay [2] is recorded as “most BocLysMCA was hydrolyzed”. In addition, the “hydrolysis by lysyl endopeptidase (LC/MS peaks)” value in assay [3] is reported as “most BocLysMCA was hydrolyzed”.
